Data reported in PMC5974752, “Bax/Tubulin/Epithelial-Mesenchymal Pathways Determine the Efficacy of Silybin Analog HM015k in Colorectal Cancer Cell Growth and Metastasis” (Frontiers in Pharmacology, 2018).
Read-outs that look alike come from different tables or passages of the source.

Key:
Type in all cases: cell-based, human
[1] = test system: HCT116; test: MTT assay; conditions: Homo sapiens, HCT-116, MTT
Procedure: (§1) The 3-(4,5-dimethylthiazol-2-yl)-2,5-diphenyltetrazolium bromide (MTT) assay was used to determine the sensitivity of the different CRC cells to the novel silybin derivatives (Hussein et al., [2017]; Manivannan et al., [2017]). The cells were seeded at a density of 4,000–5,000 cells/well in 96 well plates and incubated with serial dilutions of the compounds (0, 0.1, 0.3, 1, 3, 10, 30, and 100 μM). The MTT dye (4 mg/ml) was added after 72 h of incubation and incubated with the cells for an additional 4 h at 37°C. Following incubation, the media was discarded and the formazan crystals were dissolved by adding 100 μL of DMSO to each well. A DTX 880 multimode detector (Beckman Coulter Life, Indianapolis IN, USA) was used to determine the absorbance readings at a wavelength of 570 nm. The IC50 values were determined based on 3 separate experiments, with each experiment done in triplicate. The selectivity of the compounds was determined by comparing their cytotoxicity for CRC to normal epithelial cell lines (CHO, and CRL1459).

[2] = test system: caspases 3 and 7; test: IncuCyte caspase-3/7 real time apoptosis
Procedure: For real time quantification of apoptosis induction, the fluorescent Caspase 3/7 and Annexin V red reagents, with an excitation maximum of 500 and 593 nm and an emission maximum of 530 and 614 nm, respectively, were used. The HCT116 cells were seeded at a density of 1,000 cell/well and allowed to grow overnight. The next day, compound 15k at 0, 2, 4, and 8μM was prepared and added, directly followed by the caspase 3/7 reagent at final concentration of 5μM or annexin V red reagent in final dilution of 1: 200. The cells were then incubated in IncuCyte Zoom live cell imaging and pictures were taken every 2 h for up to 50 h and analyzed using the integrated software. The IncuCyte® Caspase-3/7 apoptosis assay reagent couples the activated caspase-3/7 recognition motif (DEVD) to NucView™ 488, a DNA intercalating dye to enable quantification of apoptosis over time. Caspase-3/7 assay reagent is non-perturbing to cell growth and morphology. When added to cell culture medium, this inert, non-fluorescent substrate crosses the cell membrane, where it is cleaved by activated caspase-3/7, resulting in the release of the DNA dye and green fluorescent staining of nuclear DNA.

[3] = test system: HCT116 cells; test: IncuCyte Cytotox green real time cell death
Procedure: For real time quantification of cell death, the Incucyte Cytotox green reagent was used. […] The plasma membrane integrity is decreased in unhealthy cells, allowing entry of the IncuCyte Cytotox reagent, yielding a 100- to 1,000-fold increase in fluorescence upon binding to deoxyribonucleic acid (DNA) (at an excitation maximum of 491 nm and an emission maximum of 509 nm). The HCT116 cells were seeded at a density of 1,000 cell/well and allowed to grow overnight. […] The cells were then incubated in a IncuCyte Zoom live cell imaging apparatus and pictures were taken every 2 h for up to 50 h.The IncuCyte® integrated analysis software was used to quantify the fluorescent objects and minimize the background fluorescence (IncuCyte ZOOM version 2016A, Essen BioScience, Ann Arbor, MI 48108, USA).

[4] = test system: CRC cell lines (HCT116, LOVO, and S1); test: MTT assay, CRC cell lines together; conditions: MTT
Procedure: as §1

[5] = test system: PARP; test: Western blot in HCT116 cells (nuclear fraction); conditions: 4 μM, vs control
Procedure: HCT116 cells were lysed to obtain cytoplasmic and nuclear protein fractions, according to the protocol used in previous publications (Alhadidi and Shah, [2017]). Briefly, the cells were seeded in and incubated with 15k for overnight at 4μM. The cells were washed using ice-cold PBS and scraped using a cell scraper and collected in 15ml tubes. The cells were centrifuged and the PBS was discarded and replaced with 400 μl of buffer A (10 mM HEPES, pH 7.9, 0.1 mM EDTA, 0.1 mM EGTA, 10 mM KCl, 1 mM dithiothreitol, and 0.5 mM phenylmethylsulfonyl fluoride) in each tube. The cells were allowed to swell under in the buffer for 15 min on ice. Subsequently, 0.1% Nonidet P-40 was added to each suspension for 1 min to disturb the plasma membrane. The nuclei were precipitated by centrifugation at 13,000 rpm for 1 min at 4°C. The cytoplasmic proteins were collected in the supernatant and stored at −80°C. Two hundred μl of Buffer B (20 mM HEPES, pH 7.9, 1 mM EDTA, 1 mM EGTA, 400 mM NaCl, 1 mM dithiothreitol, and 1 mM phenylmethylsulfonyl fluoride) was added to the pellets and left for 30 min on ice with periodic mixing. […] The bicinchoninic acid (BCA) quantification assay was used to determine the concentration of protein in the cell extracts. […] Finally, proteins were quantified using the image J software. Data were calculated as ratios to β-actin.

O=C(/C=C/c1cccc(OCc2ccccc2)c1)c1ccc(O)cc1 [Compound 15k]
IC50 ([1]; 72 h incubation, mean ± SD of three experiments, read-out: IC50 ± SD, Colon HCT116): 900 nM
IC50 ([1]; comparison with knockout cells, read-out: IC50, HCT116 wild type): 890 nM
incubation time to induce apoptosis (caspase 3/7) ([2]; 2 μM): ≈ 24 h
incubation time to induce apoptosis (caspase 3/7) ([2]; 4 and 8 μM): ≈ 10 h
time of significant difference in the number of dead cells ([3]; 2 μM, vs vehicle): 24 h
time of significant increase in cell death ([3]; 4 and 8 μM, vs control cells): 12 h
IC50 ([4]; Homo sapiens, range over HCT116, S1 and LOVO, read-out: IC50 in the CRC cells): 1000 to 2000 nM
selectivity, CRC cells compared to normal cells ([4]; vs CRL1459 and CHO): selectively cytotoxic
total PARP [5]: significantly reduced
